Experimental data taken from the kinase profiling compilation of Christmann-Franck et al. (2016).
Each block holds one molecule with its values, some of them ahead of it.

Legend:
PIM1 (human) [1] = target: PIM1 (human) (UniProt P11309); assay: SelectScreen, TR FRET
PIM2 (human) [2] = target: PIM2 (human) (UniProt Q9P1W9); assay: SelectScreen, TR FRET
TAOK1 (human) = TAOK1 (human) (UniProt Q7L7X3); assay: KINOMEscan competition binding; conditions: compound 10.0 µM
CLK2 (human) = CLK2 (human) (UniProt P49760); assay: KINOMEscan competition binding; conditions: compound 10.0 µM
TGFBR2 (human) = TGFBR2 (human) (UniProt P37173); assay: KINOMEscan competition binding; conditions: compound 10.0 µM
PIM1 (human) [3] = target: PIM1 (human) (UniProt P11309); assay: KINOMEscan competition binding; conditions: compound 10.0 µM
DAPK3 (human) = DAPK3 (human) (UniProt O43293); assay: KINOMEscan competition binding; conditions: compound 10.0 µM
STK17B (human) = STK17B (human) (UniProt O94768); assay: KINOMEscan competition binding; conditions: compound 10.0 µM
MAP2K3 (human) = MAP2K3 (human) (UniProt P46734); assay: KINOMEscan competition binding; conditions: compound 10.0 µM
GSK3B (human) = GSK3B (human) (UniProt P49841); assay: KINOMEscan competition binding; conditions: compound 10.0 µM
CHUK (human) = CHUK (human) (UniProt O15111); assay: KINOMEscan competition binding; conditions: compound 10.0 µM
PLK4 (human) = PLK4 (human) (UniProt O00444); assay: KINOMEscan competition binding; conditions: compound 10.0 µM
CDK7 (human) = CDK7 (human) (UniProt P50613); assay: KINOMEscan competition binding; conditions: compound 10.0 µM
TAOK3 (human) = TAOK3 (human) (UniProt Q9H2K8); assay: KINOMEscan competition binding; conditions: compound 10.0 µM
DYRK1B (human) = DYRK1B (human) (UniProt Q9Y463); assay: KINOMEscan competition binding; conditions: compound 10.0 µM
HIPK1 (human) = HIPK1 (human) (UniProt Q86Z02); assay: KINOMEscan competition binding; conditions: compound 10.0 µM
DAPK2 (human) = DAPK2 (human) (UniProt Q9UIK4); assay: KINOMEscan competition binding; conditions: compound 10.0 µM
[4] = target: TYK2 JH2 pseudokinase (human) (UniProt P29597); assay: KINOMEscan competition binding; conditions: compound 10.0 µM
STK17A (human) = STK17A (human) (UniProt Q9UEE5); assay: KINOMEscan competition binding; conditions: compound 10.0 µM
IKBKB (human) = IKBKB (human) (UniProt O14920); assay: KINOMEscan competition binding; conditions: compound 10.0 µM
DAPK1 (human) = DAPK1 (human) (UniProt P53355); assay: KINOMEscan competition binding; conditions: compound 10.0 µM
CDK16 (human) = CDK16 (human) (UniProt Q00536); assay: KINOMEscan competition binding; conditions: compound 10.0 µM
CLK1 (human) = CLK1 (human) (UniProt P49759); assay: KINOMEscan competition binding; conditions: compound 10.0 µM
PIM3 (human) = PIM3 (human) (UniProt Q86V86); assay: KINOMEscan competition binding; conditions: compound 10.0 µM
PIM2 (human) [5] = target: PIM2 (human) (UniProt Q9P1W9); assay: KINOMEscan competition binding; conditions: compound 10.0 µM
MAPK15 (human) = MAPK15 (human) (UniProt Q8TD08); assay: KINOMEscan competition binding; conditions: compound 10.0 µM
CLK4 (human) = CLK4 (human) (UniProt Q9HAZ1); assay: KINOMEscan competition binding; conditions: compound 10.0 µM
GSK3A (human) = GSK3A (human) (UniProt P49840); assay: KINOMEscan competition binding; conditions: compound 10.0 µM
PRKD2 (human) = PRKD2 (human) (UniProt Q9BZL6); assay: KINOMEscan competition binding; conditions: compound 10.0 µM
TTK (human) = TTK (human) (UniProt P33981); assay: KINOMEscan competition binding; conditions: compound 10.0 µM
GAK (human) = GAK (human) (UniProt O14976); assay: KINOMEscan competition binding; conditions: compound 10.0 µM
ULK1 (human) = ULK1 (human) (UniProt O75385); assay: KINOMEscan competition binding; conditions: compound 10.0 µM
TNK2 (human) = TNK2 (human) (UniProt Q07912); assay: KINOMEscan competition binding; conditions: compound 10.0 µM
CHEK2 (human) = CHEK2 (human) (UniProt O96017); assay: KINOMEscan competition binding; conditions: compound 10.0 µM
PRKD3 (human) = PRKD3 (human) (UniProt O94806); assay: KINOMEscan competition binding; conditions: compound 10.0 µM
RPS6KA2 KD2 (human) = RPS6KA2 KD2 (human) (UniProt Q15349); assay: KINOMEscan competition binding; conditions: compound 10.0 µM
MKNK2 (human) = MKNK2 (human) (UniProt Q9HBH9); assay: KINOMEscan competition binding; conditions: compound 10.0 µM
ULK2 (human) = ULK2 (human) (UniProt Q8IYT8); assay: KINOMEscan competition binding; conditions: compound 10.0 µM
FRK (human) = FRK (human) (UniProt P42685); assay: KINOMEscan competition binding; conditions: compound 10.0 µM
MYLK (human) = MYLK (human) (UniProt Q15746); assay: KINOMEscan competition binding; conditions: compound 10.0 µM
CAMKK2 (human) = CAMKK2 (human) (UniProt Q96RR4); assay: KINOMEscan competition binding; conditions: compound 10.0 µM
RPS6KA6 KD2 (human) = RPS6KA6 KD2 (human) (UniProt Q9UK32); assay: KINOMEscan competition binding; conditions: compound 10.0 µM
SGK110 (human) = SGK110 (human) (UniProt P0C264); assay: KINOMEscan competition binding; conditions: compound 10.0 µM
PTK2 (human) = PTK2 (human) (UniProt Q05397); assay: KINOMEscan competition binding; conditions: compound 10.0 µM
NUAK2 (human) = NUAK2 (human) (UniProt Q9H093); assay: KINOMEscan competition binding; conditions: compound 10.0 µM
STK33 (human) = STK33 (human) (UniProt Q9BYT3); assay: KINOMEscan competition binding; conditions: compound 10.0 µM
PIK3CD (human) = PIK3CD (human) (UniProt O00329); assay: KINOMEscan competition binding; conditions: compound 10.0 µM
DCLK1 (human) = DCLK1 (human) (UniProt O15075); assay: KINOMEscan competition binding; conditions: compound 10.0 µM
CAMK2G (human) = CAMK2G (human) (UniProt Q13555); assay: KINOMEscan competition binding; conditions: compound 10.0 µM
PHKG2 (human) = PHKG2 (human) (UniProt P15735); assay: KINOMEscan competition binding; conditions: compound 10.0 µM
TNK1 (human) = TNK1 (human) (UniProt Q13470); assay: KINOMEscan competition binding; conditions: compound 10.0 µM
[6] = test system: ABL1 (human), P00519 [F317L]; assay: KINOMEscan competition binding; conditions: compound 10.0 µM
ROS1 (human) = ROS1 (human) (UniProt P08922); assay: KINOMEscan competition binding; conditions: compound 10.0 µM
CAMK2D (human) = CAMK2D (human) (UniProt Q13557); assay: KINOMEscan competition binding; conditions: compound 10.0 µM
PRKD1 (human) = PRKD1 (human) (UniProt Q15139); assay: KINOMEscan competition binding; conditions: compound 10.0 µM
PLK1 (human) = PLK1 (human) (UniProt P53350); assay: KINOMEscan competition binding; conditions: compound 10.0 µM
CAMK2A (human) = CAMK2A (human) (UniProt Q9UQM7); assay: KINOMEscan competition binding; conditions: compound 10.0 µM
DCLK3 (human) = DCLK3 (human) (UniProt Q9C098); assay: KINOMEscan competition binding; conditions: compound 10.0 µM
PTK6 (human) = PTK6 (human) (UniProt Q13882); assay: KINOMEscan competition binding; conditions: compound 10.0 µM
PIK3CG (human) = PIK3CG (human) (UniProt P48736); assay: KINOMEscan competition binding; conditions: compound 10.0 µM
FER (human) = FER (human) (UniProt P16591); assay: KINOMEscan competition binding; conditions: compound 10.0 µM
DCLK2 (human) = DCLK2 (human) (UniProt Q8N568); assay: KINOMEscan competition binding; conditions: compound 10.0 µM
RPS6KA1 KD2 (human) = RPS6KA1 KD2 (human) (UniProt Q15418); assay: KINOMEscan competition binding; conditions: compound 10.0 µM
[7] = test system: ABL1 (human), P00519 [F317I]; assay: KINOMEscan competition binding; conditions: compound 10.0 µM
NUAK1 (human) = NUAK1 (human) (UniProt O60285); assay: KINOMEscan competition binding; conditions: compound 10.0 µM
ALK (human) = ALK (human) (UniProt Q9UM73); assay: KINOMEscan competition binding; conditions: compound 10.0 µM
CSF1R (human) = CSF1R (human) (UniProt P07333); assay: KINOMEscan competition binding; conditions: compound 10.0 µM
MAPK7 (human) = MAPK7 (human) (UniProt Q13164); assay: KINOMEscan competition binding; conditions: compound 10.0 µM
FGFR4 (human) = FGFR4 (human) (UniProt P22455); assay: KINOMEscan competition binding; conditions: compound 10.0 µM

PIM2 (human), sequence (Q9P1W9 whole entry, looked up): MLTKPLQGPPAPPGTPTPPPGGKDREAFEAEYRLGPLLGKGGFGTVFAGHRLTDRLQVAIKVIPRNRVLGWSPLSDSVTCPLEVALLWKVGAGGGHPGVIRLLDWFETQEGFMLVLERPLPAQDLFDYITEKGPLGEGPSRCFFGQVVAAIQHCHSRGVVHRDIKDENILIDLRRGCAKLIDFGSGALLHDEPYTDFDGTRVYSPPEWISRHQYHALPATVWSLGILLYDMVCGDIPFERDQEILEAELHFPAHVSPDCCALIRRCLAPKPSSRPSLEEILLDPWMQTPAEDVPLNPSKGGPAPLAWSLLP
PLK4 (human), sequence (O00444 whole entry, looked up): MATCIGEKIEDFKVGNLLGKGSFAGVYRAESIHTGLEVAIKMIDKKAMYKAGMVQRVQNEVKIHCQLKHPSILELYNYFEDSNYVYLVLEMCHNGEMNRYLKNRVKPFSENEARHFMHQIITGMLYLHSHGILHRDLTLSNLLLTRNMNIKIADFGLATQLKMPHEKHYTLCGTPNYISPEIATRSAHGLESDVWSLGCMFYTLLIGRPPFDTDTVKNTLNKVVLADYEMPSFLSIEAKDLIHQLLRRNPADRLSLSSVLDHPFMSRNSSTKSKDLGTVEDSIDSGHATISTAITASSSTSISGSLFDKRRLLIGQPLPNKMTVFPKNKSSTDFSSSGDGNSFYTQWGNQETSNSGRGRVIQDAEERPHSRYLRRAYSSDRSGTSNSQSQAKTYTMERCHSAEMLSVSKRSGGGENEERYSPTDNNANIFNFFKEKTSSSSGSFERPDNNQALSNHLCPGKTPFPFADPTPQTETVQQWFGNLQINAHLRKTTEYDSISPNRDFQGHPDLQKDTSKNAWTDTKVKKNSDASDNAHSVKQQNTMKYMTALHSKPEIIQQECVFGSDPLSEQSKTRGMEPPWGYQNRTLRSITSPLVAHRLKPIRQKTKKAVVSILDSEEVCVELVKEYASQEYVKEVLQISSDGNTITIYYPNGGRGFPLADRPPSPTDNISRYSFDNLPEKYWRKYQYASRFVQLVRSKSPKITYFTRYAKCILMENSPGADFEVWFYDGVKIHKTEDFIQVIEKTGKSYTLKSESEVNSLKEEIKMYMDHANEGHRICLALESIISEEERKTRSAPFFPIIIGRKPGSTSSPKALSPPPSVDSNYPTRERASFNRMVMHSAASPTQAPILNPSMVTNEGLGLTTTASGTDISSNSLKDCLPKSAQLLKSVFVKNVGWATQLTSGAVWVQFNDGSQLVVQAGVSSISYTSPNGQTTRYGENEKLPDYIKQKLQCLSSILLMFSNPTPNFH
PIM1 (human), sequence (P11309 whole entry, looked up): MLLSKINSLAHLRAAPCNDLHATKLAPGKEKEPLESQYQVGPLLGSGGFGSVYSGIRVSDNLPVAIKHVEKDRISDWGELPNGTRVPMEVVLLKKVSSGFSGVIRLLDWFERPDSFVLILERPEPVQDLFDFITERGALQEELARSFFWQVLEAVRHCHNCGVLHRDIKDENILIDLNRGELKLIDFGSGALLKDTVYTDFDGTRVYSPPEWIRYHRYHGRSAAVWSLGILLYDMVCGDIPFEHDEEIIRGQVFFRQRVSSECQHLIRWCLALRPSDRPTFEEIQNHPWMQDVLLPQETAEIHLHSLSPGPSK
TAOK1 (human), sequence (Q7L7X3 whole entry, looked up): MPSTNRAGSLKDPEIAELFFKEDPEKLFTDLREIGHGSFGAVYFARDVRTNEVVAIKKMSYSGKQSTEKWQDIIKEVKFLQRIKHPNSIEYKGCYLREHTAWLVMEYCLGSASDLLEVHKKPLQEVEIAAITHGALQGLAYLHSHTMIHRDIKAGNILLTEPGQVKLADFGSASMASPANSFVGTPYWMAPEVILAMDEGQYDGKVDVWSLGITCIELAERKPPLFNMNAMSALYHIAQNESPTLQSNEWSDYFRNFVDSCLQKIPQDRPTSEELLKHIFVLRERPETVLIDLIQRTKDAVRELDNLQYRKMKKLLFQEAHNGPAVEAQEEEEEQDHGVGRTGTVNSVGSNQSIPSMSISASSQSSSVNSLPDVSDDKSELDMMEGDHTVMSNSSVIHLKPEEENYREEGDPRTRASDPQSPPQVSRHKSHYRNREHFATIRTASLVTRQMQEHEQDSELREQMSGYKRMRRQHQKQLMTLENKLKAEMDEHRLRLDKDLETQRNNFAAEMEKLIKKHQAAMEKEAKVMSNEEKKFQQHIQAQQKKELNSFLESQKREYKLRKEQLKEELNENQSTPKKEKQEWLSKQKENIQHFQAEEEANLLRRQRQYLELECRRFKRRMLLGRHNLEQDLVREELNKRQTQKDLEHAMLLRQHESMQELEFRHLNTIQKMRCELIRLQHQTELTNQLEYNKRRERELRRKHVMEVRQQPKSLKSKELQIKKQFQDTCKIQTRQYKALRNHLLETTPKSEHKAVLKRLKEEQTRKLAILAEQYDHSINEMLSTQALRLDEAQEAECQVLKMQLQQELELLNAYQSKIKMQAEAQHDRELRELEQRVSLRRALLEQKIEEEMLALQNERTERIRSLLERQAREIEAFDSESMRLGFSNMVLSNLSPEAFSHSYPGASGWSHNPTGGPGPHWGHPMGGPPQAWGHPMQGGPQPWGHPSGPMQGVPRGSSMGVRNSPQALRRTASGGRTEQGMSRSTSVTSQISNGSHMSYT
TAOK3 (human), sequence (Q9H2K8 whole entry, looked up): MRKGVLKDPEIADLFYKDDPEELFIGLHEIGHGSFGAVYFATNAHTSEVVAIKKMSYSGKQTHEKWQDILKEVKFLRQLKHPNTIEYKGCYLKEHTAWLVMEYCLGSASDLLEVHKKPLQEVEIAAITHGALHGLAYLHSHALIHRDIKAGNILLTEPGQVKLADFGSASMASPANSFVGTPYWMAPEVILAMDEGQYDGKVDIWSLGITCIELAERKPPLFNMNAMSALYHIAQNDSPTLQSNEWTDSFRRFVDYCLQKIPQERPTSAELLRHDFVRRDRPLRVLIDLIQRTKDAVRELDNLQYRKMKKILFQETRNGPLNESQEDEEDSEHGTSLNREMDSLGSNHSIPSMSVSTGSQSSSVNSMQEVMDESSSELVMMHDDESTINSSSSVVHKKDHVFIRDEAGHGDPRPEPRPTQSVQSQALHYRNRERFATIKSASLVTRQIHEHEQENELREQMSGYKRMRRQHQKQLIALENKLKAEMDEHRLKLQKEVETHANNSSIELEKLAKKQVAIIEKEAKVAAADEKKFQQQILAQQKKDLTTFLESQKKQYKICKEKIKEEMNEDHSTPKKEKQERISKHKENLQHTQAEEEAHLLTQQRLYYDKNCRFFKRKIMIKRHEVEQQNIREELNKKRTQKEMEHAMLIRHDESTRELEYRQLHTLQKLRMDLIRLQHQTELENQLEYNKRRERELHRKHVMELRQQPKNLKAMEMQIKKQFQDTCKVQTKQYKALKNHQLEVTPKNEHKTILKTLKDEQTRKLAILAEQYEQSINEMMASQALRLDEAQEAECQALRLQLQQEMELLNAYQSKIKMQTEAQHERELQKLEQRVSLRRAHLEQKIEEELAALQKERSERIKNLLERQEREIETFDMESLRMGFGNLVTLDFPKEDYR
CDK16 (human), sequence (Q00536 whole entry, looked up): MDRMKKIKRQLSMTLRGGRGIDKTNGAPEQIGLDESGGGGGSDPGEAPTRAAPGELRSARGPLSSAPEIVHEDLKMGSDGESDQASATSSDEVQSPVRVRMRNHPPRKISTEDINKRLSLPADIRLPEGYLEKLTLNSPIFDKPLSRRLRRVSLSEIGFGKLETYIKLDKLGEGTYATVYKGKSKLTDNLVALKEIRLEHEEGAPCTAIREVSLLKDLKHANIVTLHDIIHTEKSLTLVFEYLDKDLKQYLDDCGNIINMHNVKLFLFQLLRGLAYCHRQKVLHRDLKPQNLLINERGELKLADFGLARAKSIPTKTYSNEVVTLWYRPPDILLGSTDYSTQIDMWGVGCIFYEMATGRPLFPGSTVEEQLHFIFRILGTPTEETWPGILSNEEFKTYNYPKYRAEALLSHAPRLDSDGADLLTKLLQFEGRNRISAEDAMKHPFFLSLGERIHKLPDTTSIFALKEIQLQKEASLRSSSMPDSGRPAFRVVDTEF
DCLK1 (human), sequence (O15075 whole entry, looked up): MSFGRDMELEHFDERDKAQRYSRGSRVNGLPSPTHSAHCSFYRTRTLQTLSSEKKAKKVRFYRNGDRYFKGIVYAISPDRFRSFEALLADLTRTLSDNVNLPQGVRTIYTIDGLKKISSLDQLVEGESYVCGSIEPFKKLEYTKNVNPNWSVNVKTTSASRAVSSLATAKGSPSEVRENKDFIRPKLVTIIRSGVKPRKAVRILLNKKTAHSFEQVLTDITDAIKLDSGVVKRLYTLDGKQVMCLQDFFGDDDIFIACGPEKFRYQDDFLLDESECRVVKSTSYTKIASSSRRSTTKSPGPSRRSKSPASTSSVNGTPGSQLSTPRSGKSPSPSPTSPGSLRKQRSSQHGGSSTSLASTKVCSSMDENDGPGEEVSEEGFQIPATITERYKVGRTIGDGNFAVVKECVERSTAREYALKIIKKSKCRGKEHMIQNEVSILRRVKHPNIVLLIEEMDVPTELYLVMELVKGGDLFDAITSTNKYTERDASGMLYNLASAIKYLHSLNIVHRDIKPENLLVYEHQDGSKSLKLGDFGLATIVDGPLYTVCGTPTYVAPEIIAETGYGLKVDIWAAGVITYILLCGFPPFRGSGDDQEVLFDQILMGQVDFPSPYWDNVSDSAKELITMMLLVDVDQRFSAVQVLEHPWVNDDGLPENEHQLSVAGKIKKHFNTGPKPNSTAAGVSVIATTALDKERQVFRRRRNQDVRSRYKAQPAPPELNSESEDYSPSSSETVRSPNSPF

IC50 (PIM1 (human) [1]): 1750 nM
IC50 (PIM2 (human) [2]): 590 nM
kinase still bound, per cent of control (TAOK1 (human)): 0.3%
kinase still bound, per cent of control (CLK2 (human)): 16%
kinase still bound, per cent of control (TGFBR2 (human)): 7.8%
kinase still bound, per cent of control (PIM1 (human) [3]): 3.4%
kinase still bound, per cent of control (DAPK3 (human)): 14%
kinase still bound, per cent of control (STK17B (human)): 2.2%
kinase still bound, per cent of control (MAP2K3 (human)): 5.8%
kinase still bound, per cent of control (GSK3B (human)): 30%
kinase still bound, per cent of control (CHUK (human)): 27%
kinase still bound, per cent of control (PLK4 (human)): 21%
kinase still bound, per cent of control (CDK7 (human)): 15%
kinase still bound, per cent of control (TAOK3 (human)): 6.6%
kinase still bound, per cent of control (DYRK1B (human)): 33%
kinase still bound, per cent of control (HIPK1 (human)): 0.2%
kinase still bound, per cent of control (DAPK2 (human)): 5.1%
kinase still bound, per cent of control [4]: 34%
kinase still bound, per cent of control (STK17A (human)): 0.45%
kinase still bound, per cent of control (IKBKB (human)): 29%
kinase still bound, per cent of control (DAPK1 (human)): 15%
kinase still bound, per cent of control (CDK16 (human)): 9.4%
kinase still bound, per cent of control (CLK1 (human)): 26%
kinase still bound, per cent of control (PIM3 (human)): 3.7%
kinase still bound, per cent of control (PIM2 (human) [5]): 1.2%
kinase still bound, per cent of control (CLK4 (human)): 28%
kinase still bound, per cent of control (GSK3A (human)): 4.3%
SMILES: N=C1NC(=O)/C(=C/c2ccc(-c3ccc(F)cc3)o2)S1
kinase still bound, per cent of control (MAPK15 (human)): 0.95%

kinase still bound, per cent of control (PRKD2 (human)): 0.55%
kinase still bound, per cent of control (TTK (human)): 26%
kinase still bound, per cent of control (GAK (human)): 9.8%
kinase still bound, per cent of control (ULK1 (human)): 2.9%
kinase still bound, per cent of control (TAOK1 (human)): 4.8%
kinase still bound, per cent of control (TNK2 (human)): 3.2%
kinase still bound, per cent of control (CHEK2 (human)): 30%
kinase still bound, per cent of control (PRKD3 (human)): 5.4%
kinase still bound, per cent of control (RPS6KA2 KD2 (human)): 15%
kinase still bound, per cent of control (MKNK2 (human)): 0%
kinase still bound, per cent of control (ULK2 (human)): 0.5%
kinase still bound, per cent of control (FRK (human)): 2.6%
kinase still bound, per cent of control (MYLK (human)): 13%
kinase still bound, per cent of control (CAMKK2 (human)): 15%
kinase still bound, per cent of control (RPS6KA6 KD2 (human)): 4.9%
kinase still bound, per cent of control (SGK110 (human)): 30%
kinase still bound, per cent of control (PTK2 (human)): 16%
kinase still bound, per cent of control (NUAK2 (human)): 14%
kinase still bound, per cent of control (STK33 (human)): 8.8%
kinase still bound, per cent of control (PLK4 (human)): 6.8%
kinase still bound, per cent of control (PIK3CD (human)): 33%
kinase still bound, per cent of control (DCLK1 (human)): 0.65%
kinase still bound, per cent of control (CAMK2G (human)): 31%
kinase still bound, per cent of control (PHKG2 (human)): 29%
kinase still bound, per cent of control (TNK1 (human)): 0.4%
kinase still bound, per cent of control (TAOK3 (human)): 2%
kinase still bound, per cent of control [6]: 17%
kinase still bound, per cent of control (ROS1 (human)): 7.6%
kinase still bound, per cent of control (CAMK2D (human)): 23%
kinase still bound, per cent of control (PRKD1 (human)): 3.8%
kinase still bound, per cent of control (PLK1 (human)): 9.8%
kinase still bound, per cent of control (CAMK2A (human)): 32%
kinase still bound, per cent of control (DCLK3 (human)): 16%
kinase still bound, per cent of control (PTK6 (human)): 7.6%
kinase still bound, per cent of control (PIK3CG (human)): 31%
kinase still bound, per cent of control (FER (human)): 32%
kinase still bound, per cent of control (DCLK2 (human)): 0.45%
kinase still bound, per cent of control (RPS6KA1 KD2 (human)): 18%
kinase still bound, per cent of control [7]: 5%
kinase still bound, per cent of control (NUAK1 (human)): 7.6%
kinase still bound, per cent of control (ALK (human)): 16%
kinase still bound, per cent of control (CSF1R (human)): 16%
kinase still bound, per cent of control (MAPK7 (human)): 0%
kinase still bound, per cent of control (FGFR4 (human)): 5.6%
SMILES: COc1cc(N2CCN(C)CC2)ccc1Nc1ncc2c(n1)N(C)c1ccccc1C(=O)N2C
